The values that follow come from patent publication US20200385371A1 (Propellon Therapeutics Inc., priority 2017, published 2020).

The target in assay [1] is T1, WDR5 (Homo sapiens, UniProt P61964). Kind of assay: Fluorescence Polarization (FP) binding assay. In outline: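 Displacement of fluorescein-labelled H3 (1-15) (30 nM, with 0.3 μM WDR5) or 9-Ala-FAM (20 nM, with 0.05 μM WDR5) in 80 mM sodium phosphate pH 6.5, 20 mM KCl, 0.008% Triton X-100. FP read at 485/528 nm (H3) or 480/540 nm (9-Ala-FAM); Kdisp from hyperbolic fit, mean of quadruplicates.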

Assay [2] has as its target T1, WDR5. Kind of assay: Surface Plasmon Resonance (SPR) assay. Conditions: read-out: SPR Kd. It counts as binding. On the set-up: Full length WDR5 with an N-terminal His tag and C-terminal AviTag; His tag (N); made in house; host or cells: E. coli. In outline:
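Full-length biotinylated WDR5 (N-His, C-AviTag, E. coli) captured (~3000 RU) on streptavidin SA chip; Biacore T200. HBS-EP pH 7.4 plus 5% DMSO running buffer, 40 μl/min.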

Assay [3] has as its system MV4-11 cells. Kind of assay: Cell proliferation assay (ATPlite). It counts as cell-based. Conditions: Homo sapiens, 120 h; MV4-11 cells, five days; read-out: GI MV411 EC50. The gist of the method:
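Cells seeded at 1,000/well in Alpha-MEM with 10% FBS, treated with compound over a 10-point range (top 10 μM) or DMSO. Grown five days at 37° C, 5% CO2; viability by ATPlite luminescence.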
(In general: In ATP-based viability assays light output follows the ATP content of the culture.)

For `C[C@@H]1CN(c2ncc(-c3c(F)cc(N4CCN(C)[C@@H](C)C4)c(NC(=O)c4c[nH]c(=O)cc4C(F)F)c3F)cn2)CCO1` [Example 129, 4-(Difluoromethyl)-N-(6-((S)-3,4-dimethylpiperazin-1-yl)-2,4-difluoro-3-(2-((R)-2-methylmorpholino)pyrimidin-5-yl)phenyl)-6-oxo-1,6-dihydropyridine-3-carboxamide], in assay [1], the IC50 (commonly the concentration needed to halve the response being measured) turned out to be 8.79 nM. Also, in assay [2], the Kd (commonly the free concentration of one partner at which half of the binding sites on the other are occupied at equilibrium, for simple one-to-one binding) came out at 0.34 nM. The half-maximal effective concentration (EC50) (in general, the concentration needed to bring the measured effect to its halfway point) in assay [3] was determined as 13.5 nM.
Consider `C[C@@H]1CN(c2ncc(-c3c(F)cc(N4C[C@@H](C)N(C)[C@@H](C)C4)c(NC(=O)c4c[nH]c(=O)cc4C(F)F)c3F)cn2)CCO1` [Example 130, N-(2,4-difluoro-3-(2-((R)-2-methylmorpholino)pyrimidin-5-yl)-6-((3S,5R)-3,4,5-trimethylpiperazin-1-yl)phenyl)-4-(difluoromethyl)-6-oxo-1,6-dihydropyridine-3-carboxamide], for which, in assay [1], the IC50 was 8.92 nM. The Kd in assay [2] was 0.55 nM. Besides, in assay [3], the EC50 stood at 10.2 nM.
Take `C[C@@H]1CN(c2nc(-c3c(F)cc(N4CCN(C)[C@@H](C)C4)c(NC(=O)c4c[nH]c(=O)cc4C(F)(F)F)c3F)cs2)C[C@H](C)O1` [Example 131, N-(3-(2-((2S,6R)-2,6-dimethylmorpholino)thiazol-4-yl)-6-((S)-3,4-dimethylpiperazin-1-yl)-2,4-difluorophenyl)-6-oxo-4-(trifluoromethyl)-1,6-dihydropyridine-3-carboxamide]: in assay [1], the IC50 was determined as 16.6 nM. In addition, the Kd in assay [2] was 5.12 nM. Further, the EC50 in assay [3] worked out at 208 nM.
The like results for `C[C@@H]1CN(c2nc(-c3c(F)cc(N4CCN(C)[C@@H](C)C4)c(NC(=O)c4c[nH]c(=O)cc4C(F)F)c3F)cs2)C[C@H](C)O1` [Example 132, 4-(Difluoromethyl)-N-(3-(2-((2S,6R)-2,6-dimethylmorpholino)thiazol-4-yl)-6-((S)-3,4-dimethylpiperazin-1-yl)-2,4-difluorophenyl)-6-oxo-1,6-dihydropyridine-3-carboxamide] were, in that order, 12.4 nM, 2.01 nM and 132 nM.
For `CC(C)OC(=O)N1CC=C(c2c(F)cc(N3C[C@@H](C)N(C)[C@@H](C)C3)c(NC(=O)c3c[nH]c(=O)cc3C(F)(F)F)c2F)CC1` [Example 133], in that order: 12.3 nM, 2.62 nM and 58.5 nM.
As to `CC(C)OC(=O)N1CC=C(c2c(F)cc(N3C[C@@H](C)N(C)[C@@H](C)C3)c(NC(=O)c3c[nH]c(=O)cc3C(F)(F)F)c2F)C1` [Example 134], in assay [1], the IC50 worked out at 11.4 nM. In addition, in assay [2], the Kd was 0.87 nM. Moreover, the EC50 in assay [3] was found to be 55.8 nM.
The like results for `C[C@@H]1CN(c2cc(F)c(C3=CCN(C(=O)OC4CC(F)(F)C4)CC3)c(F)c2NC(=O)c2c[nH]c(=O)cc2C(F)(F)F)C[C@H](C)N1C` [Example 135, 3,3-Difluorocyclobutyl 4-(2,6-difluoro-3-(6-oxo-4-(trifluoromethyl)-1,6-dihydropyridine-3-carboxamido)-4-((3S,5R)-3,4,5-trimethylpiperazin-1-yl)phenyl)-5,6-dihydropyridine-1(2H)-carboxylate] were, in that order, 12.5 nM, 2.31 nM and 67.4 nM.
For `C[C@@H]1CN(c2cc(F)c(C3=CCN(C(=O)OC4CC(F)(F)C4)C3)c(F)c2NC(=O)c2c[nH]c(=O)cc2C(F)(F)F)C[C@H](C)N1C` [Example 136, 3,3-Difluorocyclobutyl 3-(2,6-difluoro-3-(6-oxo-4-(trifluoromethyl)-1,6-dihydropyridine-3-carboxamido)-4-((3S,5R)-3,4,5-trimethylpiperazin-1-yl)phenyl)-2,5-dihydro-1H-pyrrole-1-carboxylate], in that order: 14.9 nM, 1.16 nM and 42 nM.
The like results for `COc1cnc(N2CC=C(c3c(F)cc(N4C[C@@H](C)N(C)[C@@H](C)C4)c(NC(=O)c4c[nH]c(=O)cc4C(F)(F)F)c3F)CC2)nc1` [Example 137, N-(2,4-difluoro-3-(1-(5-methoxypyrimidin-2-yl)-1,2,3,6-tetrahydropyridin-4-yl)-6-((3S,5R)-3,4,5-trimethylpiperazin-1-yl)phenyl)-6-oxo-4-(trifluoromethyl)-1,6-dihydropyridine-3-carboxamide] were, in that order, 17 nM, 2.57 nM and 75.1 nM.
As to `COc1cnc(N2CCC=C(c3c(F)cc(N4C[C@@H](C)N(C)[C@@H](C)C4)c(NC(=O)c4c[nH]c(=O)cc4C(F)(F)F)c3F)C2)nc1` [Example 138, N-(2,4-difluoro-3-(1-(5-methoxypyrimidin-2-yl)-1,2,5,6-tetrahydropyridin-3-yl)-6-((3S,5R)-3,4,5-trimethylpiperazin-1-yl)phenyl)-6-oxo-4-(trifluoromethyl)-1,6-dihydropyridine-3-carboxamide], in assay [1], the IC50 was found to be 19.5 nM. In addition, in assay [2], the Kd worked out at 1.93 nM. Besides, in assay [3], the EC50 is 109 nM.
The like results for `COc1cnc(N2CC=C(c3c(F)cc(N4C[C@@H](C)N(C)[C@@H](C)C4)c(NC(=O)c4c[nH]c(=O)cc4C(F)(F)F)c3F)C2)nc1` [Example 139, N-(2,4-difluoro-3-(1-(5-methoxypyrimidin-2-yl)-2,5-dihydro-1H-pyrrol-3-yl)-6-((3S,5R)-3,4,5-trimethylpiperazin-1-yl)phenyl)-6-oxo-4-(trifluoromethyl)-1,6-dihydropyridine-3-carboxamide] were, in that order, 12 nM, 1.65 nM and 18.5 nM.
The like results for `COc1cc(N2CC=C(c3c(F)cc(N4C[C@@H](C)N(C)[C@@H](C)C4)c(NC(=O)c4c[nH]c(=O)cc4C(F)(F)F)c3F)CC2)ncn1` [Example 140, N-(2,4-difluoro-3-(1-(6-methoxypyrimidin-4-yl)-1,2,3,6-tetrahydropyridin-4-yl)-6-((3S,5R)-3,4,5-trimethylpiperazin-1-yl)phenyl)-6-oxo-4-(trifluoromethyl)-1,6-dihydropyridine-3-carboxamide] were, in that order, 14.5 nM, 1.4 nM and 30.9 nM.
For `C[C@@H]1CN(c2cc(F)c(C3=CCN(C(=O)OC4(C)CCC4)C3)c(F)c2NC(=O)c2c[nH]c(=O)cc2C(F)(F)F)C[C@H](C)N1C` [Example 141, 1-Methylcyclobutyl 3-(2,6-difluoro-3-(6-oxo-4-(trifluoromethyl)-1,6-dihydropyridine-3-carboxamido)-4-((3S,5R)-3,4,5-trimethylpiperazin-1-yl)phenyl)-2,5-dihydro-1H-pyrrole-1-carboxylate], in that order: 10.1 nM, 0.96 nM and 31.2 nM.
Turning to `COc1cc(N2CCC=C(c3c(F)cc(N4C[C@@H](C)N(C)[C@@H](C)C4)c(NC(=O)c4c[nH]c(=O)cc4C(F)(F)F)c3F)C2)ncn1` [Example 142, N-(2,4-difluoro-3-(1-(6-methoxypyrimidin-4-yl)-1,2,5,6-tetrahydropyridin-3-yl)-6-((3S,5R)-3,4,5-trimethylpiperazin-1-yl)phenyl)-6-oxo-4-(trifluoromethyl)-1,6-dihydropyridine-3-carboxamide], in assay [1], the IC50 was found to be 13.2 nM. Moreover, in assay [2], the Kd was 1.76 nM. In addition, the EC50 in assay [3] amounted to 38.3 nM.
As to `COc1cc(N2CC=C(c3c(F)cc(N4C[C@@H](C)N(C)[C@@H](C)C4)c(NC(=O)c4c[nH]c(=O)cc4C(F)(F)F)c3F)C2)ncn1` [Example 143, N-(2,4-difluoro-3-(1-(6-methoxypyrimidin-4-yl)-2,5-dihydro-1H-pyrrol-3-yl)-6-((3S,5R)-3,4,5-trimethylpiperazin-1-yl)phenyl)-6-oxo-4-(trifluoromethyl)-1,6-dihydropyridine-3-carboxamide], in assay [1], the IC50 was determined as 14.4 nM. Moreover, the equilibrium dissociation constant (Kd) in assay [2] worked out at 0.92 nM. For the same molecule, in assay [3], the EC50 was determined as 17.7 nM.
The like results for `C[C@@H]1CN(c2cc(F)c(C3=CCN(C(=O)OC4(C)CCC4)CC3)c(F)c2NC(=O)c2c[nH]c(=O)cc2C(F)(F)F)C[C@H](C)N1C` [Example 144, 1-Methylcyclobutyl 4-(2,6-difluoro-3-(6-oxo-4-(trifluoromethyl)-1,6-dihydropyridine-3-carboxamido)-4-((3S,5R)-3,4,5-trimethylpiperazin-1-yl)phenyl)-5,6-dihydropyridine-1(2H)-carboxylate] were, in that order, 12.7 nM, 1.53 nM and 11.4 nM.
The like results for `C[C@@H]1CN(c2cc(F)c(C3=CCN(c4ncc(F)cn4)CC3)c(F)c2NC(=O)c2c[nH]c(=O)cc2C(F)(F)F)C[C@H](C)N1C` [Example 145, N-(2,4-difluoro-3-(1-(5-fluoropyrimidin-2-yl)-1,2,3,6-tetrahydropyridin-4-yl)-6-((3S,5R)-3,4,5-trimethylpiperazin-1-yl)phenyl)-6-oxo-4-(trifluoromethyl)-1,6-dihydropyridine-3-carboxamide] were, in that order, 13.9 nM, 0.84 nM and 58.9 nM.
